The test addresses T1, proTNFα convertase enzyme (TACE) (Homo sapiens, UniProt P78536).
T1 construct: partially purified, isolated enzyme assay, the enzyme being obtained from the membranes of THP-1; endogenous in cells; host or cells: THP-1 cell membranes, partially purified as in Mohler et al. (1994) Nature 370:218-220
As to the kind of experiment: partially purified isolated enzyme assay for proTNFα convertase (TACE). The test is classed as biochemical. As to conditions: 10 μM of compound; enzyme from membranes of THP-1; 26° C. for 4 hours. The method, then:
Recombinant human proMMP13 may be expressed and purified as described by Knauper et al. [V. Knauper et al., (1996) The Biochemical Journal 271:1544-1550 (1996)]. […] Activity is determined by measuring the fluorescence at λex 328 nm and λem 393 nm. Percent inhibition may be calculated as follows: % Inhibition is equal to the [Fluorescenceplus inhibitor−Fluorescencebackground] divided by the [Fluorescenceminus inhibitor−Fluorescencebackground].
The ability of the compounds to inhibit proTNFα convertase enzyme (TACE) has been assessed using a partially purified, isolated enzyme assay, the enzyme being obtained from the membranes of THP-1 as described by K. M. Mohler et al., (1994) Nature 370:218-220. The purified enzyme activity and inhibition thereof was determined by incubating the partially purified enzyme in the presence or absence of test compounds using the substrate 4′,5′-Dimethoxy-fluoresceinyl Ser.Pro.Leu.Ala.Gln.Ala.Val.Arg.Ser.Ser.Ser.Arg.Cys(4-(3-succinimid-1-yl)fluorescein)-NH2 in assay buffer (50 mM Tris HCl, pH 7.4 containing 0.1% (w/v) Triton X-100 and 2 mM CaCl2), at 26° C. for 4 hours. The amount of inhibition was determined as for MMP13 except λex 485 nm and λem 538 nm were used. […]

The text below walks through data of US20060173041A1, “Sulphonylpiperidine derivatives containing an aryl or heteroaryl group for use as matrix metalloproteinase inhibitors” (priority 2002, published 2006).

T1 sequence (P78536 215-824): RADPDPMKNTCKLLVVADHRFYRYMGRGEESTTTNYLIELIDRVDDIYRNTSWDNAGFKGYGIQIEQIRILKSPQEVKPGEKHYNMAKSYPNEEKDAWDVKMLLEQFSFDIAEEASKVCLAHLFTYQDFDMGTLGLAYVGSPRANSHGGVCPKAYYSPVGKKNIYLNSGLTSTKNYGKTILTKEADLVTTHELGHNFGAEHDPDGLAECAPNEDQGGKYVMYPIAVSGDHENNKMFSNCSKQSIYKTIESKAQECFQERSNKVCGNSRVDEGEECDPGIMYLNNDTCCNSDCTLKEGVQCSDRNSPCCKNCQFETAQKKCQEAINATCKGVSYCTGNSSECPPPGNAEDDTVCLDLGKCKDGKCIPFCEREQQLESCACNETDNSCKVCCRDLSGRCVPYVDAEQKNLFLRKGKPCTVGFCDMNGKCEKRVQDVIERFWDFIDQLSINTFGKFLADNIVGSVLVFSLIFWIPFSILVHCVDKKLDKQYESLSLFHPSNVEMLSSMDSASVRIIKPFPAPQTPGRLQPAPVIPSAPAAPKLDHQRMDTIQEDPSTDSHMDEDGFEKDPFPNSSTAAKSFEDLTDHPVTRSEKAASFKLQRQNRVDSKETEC

For orientation: inhibition means the change of the read-out against control, counted positive when it falls. The low end stands for a weak effect, the high end for a strong effect. For the molecule `CC(C)Oc1ccccc1OC1CCN(S(=O)(=O)CC(c2ccccc2)N(O)C=O)CC1` (racemic) [Example 8, (R/S)-hydroxy(2-{[4-(2-isopropoxyphenoxy)piperidin-1-yl]sulphonyl}-1-phenylethyl)formamide], the inhibition at 10 µM stood at 81%.

`CC(C)NC(=O)c1ccccc1OC1CCN(S(=O)(=O)CC(c2ccccc2)N(O)C=O)CC1` (racemic) [Example 14] showed an inhibition at 10 µM of 76%.
